The assay deals with T1, papain (Carica papaya, UniProt P00784).
T1 construct: purchased Sigma Chem. Co
T1 sequence (P00784 134-345): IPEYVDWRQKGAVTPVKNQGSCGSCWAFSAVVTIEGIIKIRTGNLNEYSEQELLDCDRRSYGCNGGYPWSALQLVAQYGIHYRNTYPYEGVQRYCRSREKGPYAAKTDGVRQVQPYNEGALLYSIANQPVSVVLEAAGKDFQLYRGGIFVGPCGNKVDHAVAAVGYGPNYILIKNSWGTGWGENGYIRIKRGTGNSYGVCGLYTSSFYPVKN
Nature of the assay: Papain inhibitory activity (milk casein proteolysis). To be noted: amount of inhibitor for 50% inhibition; pH 6.8, 40° C., casein substrate. The class given is biochemical. Also on record: unit not given beside the values. The method, then:
Papain inhibitory activity of the compounds of the present invention was assayed as follows: To 0.5 ml of a solution of papain (80 μg/ml, Sigma Chem. Co., 2x, cry.), were added 0.25 ml of 40 mM cysteine dissolved in 20 mM disodium ethylenediamine tetraacetic acid solution adjusted pH to 6.8 with sodium hydroxide and 0.25 ml of 33 mM phosphate buffer (pH 6.8) with or without inhibitor. After incubation for 15 minutes at 40° C., the resulting mixture was added to 5 ml of 1% milk casein solution in the same buffer as described above, and further incubated for 10 minutes at 40° C. Then the mixture was mixed with 5 ml of 0.44 M trichloroacetic acid solution and followed by filtration with a sheet of Toyo filter paper No. 4.
The extinction of the filtrate was read at 280 nm. The percent inhibition was calculated from the formula, 100×(B-A)/B; wherein B stands for the absorbance without inhibitor and A for the absorbance with inhibitor. The compound Nos. in Table 2 are as defined in Examples as described hereinafter.

In the case of `O=C(OCc1ccccc1)[C@@H]1O[C@H]1C(=O)N1CCCCC1` (relative stereo) [Compound No. 78, Benzyl N-pentamethylene-2,3-epoxysuccinamate], the ID50 is 34.23 γ. For `CCOC(=O)[C@@H]1O[C@H]1C(=O)Nc1ccccn1` (relative stereo) [Compound No. 11, ethyl N-2'-pyridinyl-2,3-epoxysuccinamate] the value was 25.05 γ. Under `CCOC(=O)[C@@H]1O[C@H]1C(=O)N1CCOC(C)C1` (stereo partly drawn) [Compound No. 33, ethyl N-1'-methyloxydiethylene-2,3-epoxysuccinamate] stands 95.10 γ; under `CCNC(=O)[C@H]1O[C@@H]1C(=O)O` (relative stereo) [Compound No. 102, Potassium N-ethyl-2,3-epoxysuccinamate], 1.34 γ; under `O=C(O)[C@@H]1O[C@H]1C(=O)NC1CCCCC1` (relative stereo) [Compound No. 107, N-Cyclohexyl-2,3-epoxysuccinamic acid], 0.214 γ.

For `O=C(Nc1ccccc1)[C@H]1O[C@@H]1C(=O)OCC1CC=CCC1` (relative stereo) [Compound No. 53, 3'-cyclohexenemethyl N-phenyl-2,3-epoxysuccinamate], the ID50 was 1.63 γ. For `CCCOC(=O)[C@H]1O[C@@H]1C(=O)NC1CCCC1` (relative stereo) [Compound No. 63, Propyl N-cyclopentyl-2,3-epoxysuccinamate] the value was 4.23 γ; for `COC(=O)[C@@H]1O[C@H]1C(=O)Nc1ccccc1C` (relative stereo) [Compound No. 35, Methyl N-2'-methylphenyl-2,3-epoxysuccinamate], 16.52 γ; for `CC#CCOC(=O)[C@@H]1O[C@H]1C(=O)NCc1cccs1` (relative stereo) [Compound No. 42, 2'-Butynyl N-thenyl-2,3-epoxysuccinamate], 14.15 γ. Under `O=C(O)[C@@H]1O[C@H]1C(=O)Nc1ccccc1` (relative stereo) [Compound No. 104, Sodium N-phenyl-2,3-epoxysuccinamate] stands 0.315 γ.

`CC(C)OC(=O)[C@@H]1O[C@H]1C(=O)Nc1ccccc1` (relative stereo) [Compound No. 93, isopropyl N-phenyl-2,3-epoxysuccinamate]: the ID50 is given as 21.55 γ. For `O=C(O)[C@@H]1O[C@H]1C(=O)N1CCCC1` (relative stereo) [Compound No. 103, Sodium N-tetramethylene-2,3-epoxysuccinamate] the value was 13.42 γ; for `COC(=O)[C@H]1O[C@@H]1C(=O)NC(C)C` (stereo in doubt) [Compound No. 60, Methyl N-isopropyl-2,3-epoxysuccinamate], 32.35 γ. Under `CCOC(=O)[C@@H]1O[C@H]1C(=O)NCc1ccccc1` (relative stereo) [Compound No. 13, ethyl N-benzyl-2,3-epoxysuccinamate] stands 13.30 γ; under `CCOC(=O)[C@@H]1O[C@H]1C(=O)Nc1ccc(Br)cc1` (relative stereo) [Compound No. 6, ethyl N-4'-bromophenyl-2,3-epoxysuccinamate], 25.51 γ.

`CCOC(=O)[C@@H]1O[C@H]1C(=O)Nc1cccc(C(F)(F)F)c1` (relative stereo) [Compound No. 2, ethyl N-3'-trifluoromethylphenyl-2,3-epoxysuccinamate]: the ID50 is 40.30 γ. Under `CCCN(C(=O)[C@H]1O[C@@H]1C(=O)OCC)c1ccccc1` (relative stereo) [Compound No. 59, ethyl N-propyl-N-phenyl-2,3-epoxysuccinamate] stands 154.50 γ; under `CCOC(=O)[C@@H]1O[C@H]1C(=O)Nc1cccc(F)c1` (relative stereo) [Compound No. 10, ethyl N-3'-fluorophenyl-2,3-epoxysuccinamate], 32.05 γ.

Turning to `O=C(O)[C@@H]1O[C@H]1C(=O)N1CCCCC1` (relative stereo) [Compound No. 101, Potassium N-pentamethylene-2,3-epoxysuccinamate], the ID50 is reported as 4.05 γ. Turning to `CCCOC(=O)[C@H]1O[C@@H]1C(=O)Nc1ccccc1` (relative stereo) [Compound No. 62, Propyl N-phenyl-2,3-epoxysuccinamate], the ID50 is 6.16 γ.

With `CN1CCN(C(=O)[C@H]2O[C@@H]2C(=O)OCC2CCCC2)CC1` (relative stereo) [Compound No. 72, Cyclopentanemethyl N-N'-methylaminodiethylene-2,3-epoxysuccinamate], the ID50 was 146.51 γ. Under `CCOC(=O)[C@@H]1O[C@H]1C(=O)N1CCOCC1` (relative stereo) [Compound No. 21] stands 93.28 γ.

With `CCOC(=O)[C@@H]1O[C@H]1C(=O)N1CCN(C)CC1` (relative stereo) [Compound No. 23, ethyl N-N'-methylaminodiethylene-2,3-epoxysuccinamate], the ID50 was 868.05 γ.

In the case of `CCOC(=O)C1OC1C(=O)N1CCSCC1C` (stereo not drawn) [Compound No. 80, Ethyl N-1'-methylthiadiethylene-2,3-epoxysuccinamate], the ID50 is 120.53 γ. For `C=CCOC(=O)[C@H]1O[C@@H]1C(=O)NCCc1ccccc1` (relative stereo) [Compound No. 71, Allyl N-phenethyl-2,3-epoxysuccinamate] the value was 4.13 γ.

With `CCOC(=O)[C@H]1O[C@@H]1C(=O)Nc1cccc(C)c1` (relative stereo) [Compound No. 51, ethyl N-3'-methylphenyl-2,3-epoxysuccinamate], the ID50 is recorded as 18.66 γ. For `CCCCOC(=O)[C@H]1O[C@@H]1C(=O)Nc1ccccc1` (relative stereo) [Compound No. 52, butyl N-phenyl-2,3-epoxysuccinamate] the value was 5.32 γ; for `CCOC(=O)[C@@H]1O[C@H]1C(=O)N1CCSCC1` (relative stereo) [Compound No. 22, ethyl N-thiadiethylene-2,3-epoxysuccinamate], 95.01 γ. For `CCOC(=O)[C@@H]1O[C@H]1C(=O)Nc1ccccc1O` (relative stereo) [Compound No. 4, ethyl N-2'-hydroxyphenyl-2,3-epoxysuccinamate] the value was 138.88 γ.

On to `CC(C)NC(=O)[C@H]1O[C@@H]1C(=O)OCc1ccccc1` (relative stereo) [Compound No. 67, Benzyl N-isopropyl-2,3-epoxysuccinamate], for which the ID50 is 5.14 γ.

With `O=C(O)[C@@H]1O[C@H]1C(=O)Nc1ccccc1` (relative stereo) [Compound No. 105, N-phenyl-2,3-epoxysuccinamic acid], the ID50 is recorded as 0.278 γ.

Take `CCCCOC(=O)C1CCCN1C(=O)C1OC1C(=O)OCC` (stereo not drawn) [Compound No. 88, ethyl N-1'-carbobutoxytetramethylene-2,3-epoxysuccinamate]: the ID50 was 118.41 γ. Under `CC(C)CCNC(=O)[C@H]1O[C@@H]1C(=O)O` (relative stereo) [Compound No. 97, potassium N-isoamyl-2,3-epoxysuccinamate] stands 0.266 γ; under `CCOC(=O)[C@@H]1O[C@H]1C(=O)Nc1cccc(C(C)=O)c1` (relative stereo) [Compound No. 3, ethyl N-3'-acetylphenyl-2,3-epoxysuccinamate], 34.72 γ; under `C#CCOC(=O)[C@@H]1O[C@H]1C(=O)N1CCCCC1` (relative stereo) [Compound No. 74, propargyl N-pentamethylene-2,3-epoxysuccinamate], 39.62 γ.

Regarding `CCOC(=O)[C@H]1O[C@@H]1C(=O)NCCCCCNC(=O)OCc1ccccc1` (relative stereo) [Compound No. 69, ethyl N-carbobenzoxyaminopentyl-2,3-epoxysuccinamate], the ID50 was 12.05 γ.

As to `CCOC(=O)[C@@H]1O[C@H]1C(=O)NCCC(C)C` (relative stereo) [Compound No. 17, ethyl N-isoamyl-2,3-epoxysuccinamate], the ID50 is listed as 28.41 γ. `CC(C)CCOC(=O)[C@@H]1O[C@H]1C(=O)N(C)C` (relative stereo) [Compound No. 90, Isoamyl N,N-dimethyl-2,3-epoxysuccinamate]: the ID50 is reported as 50.25 γ. Under `CC(C)COC(=O)[C@H]1O[C@@H]1C(=O)NCc1ccco1` (relative stereo) [Compound No. 39, Isobutyl N-furfuryl-2,3-epoxysuccinamate] stands 3.08 γ; under `O=C(O)C1OC1C(=O)N1CCCC1C(=O)O` (stereo not drawn) [Compound No. 106, N-1'-carboxytetramethylene-2,3-epoxysuccinamic acid], 0.301 γ. Under `CCOC(=O)[C@H]1O[C@@H]1C(N)=O` (relative stereo) [Compound No. 55, ethyl 2,3-epoxysuccinamate] stands 3.14 γ; under `COc1ccccc1NC(=O)[C@@H]1O[C@H]1C(=O)OCc1ccccc1` (relative stereo) [Compound No. 29, benzyl N-2'-methoxyphenyl-2,3-epoxysuccinamate], 2.91 γ.

The values above are taken from patent US4387238A, “Epoxysuccinamic acid compounds” (Taisho Pharmaceutical Co., Ltd., priority 1978, dated 1983).
